Data taken from US20160025711A1, “FLUORESCENT MARKERS AND METHODS FOR IMAGING DISEASES” (BOARD OF SUPERVISORS OF LOUISIANA STATE UNIVERSITY AND …, priority 2013, published 2016).
Where two headings read alike, the source gives them in different places. Blank lines part the entries; values can stand above or below the molecule they belong to.

Assays:
[1] = molecular target: human NAD(P)Rquinone oxidoreductase isozyme 1 (hNQO1) (Homo sapiens, UniProt P15559); experiment: Michaelis-Menten kinetics of hNQO1 activation of the probe (NI reporter production); assay type: biochemical
From the text: In embodiments of the present in invention hNQO 1 reduces fluorescent probes cloked with a quinone moiety. In embodiments of the present invention, Q3NI is a probe capable of activation by hNQO1 to yield the NI reporter at a significant rate. Apparent kinetic parameters of Q3NI were obtained from Michaelis-Menten kinetic treatment of the time-dependent NI reporter production, namely the Michaelis constant (Km), maximum velocity (Vmax), catalytic constant (kcat), and substrate specificity (kcat/Km). The high rate of NI reporter production under in vitro conditions is readily apparent in FIG. 7; after 5 min, a fluorescent signal has been attained that is 22% of the maximum achievable, yielding 2.2×10^−7 M of released reporter.

[2] = Fluorescence spectra and quantum yield in pH 7.4, 0.1 M PBS; assay type: physicochemical; details: for fluorescence quantum yield Φ: quinine sulfate as standard
From the text: (§1) was used to examine possible quinone propionic acid quenchers and 1,8-naphthalimide reporters as well as linkers between the OeT quencher and the NI reporter, so as to ensure that quenching is thermodynamically feasible and efficient. In this equation, ED is the redox potential of the donor and EA that of the acceptor, ΔG00 is the energy of the first excited singlet state of the reporter, and e^2/εd is the Coulombic interaction energy of the ion pair, known to be 0.06 eV. The energy of the first excited singlet state of NI was measured to be 3.06 eV. […] The quinone was attached to the naphthalimide via an N-methylethanolamine linker through a carbamate to the amine of the naphthalimide ring. This linker imparts three properties on Q3NI: the linker is sufficiently short to allow for a high probability of electron transfer, the electron-withdrawing carbamate yields a favorable ΔGPeT, and the presence of the tertiary amide provides enhanced environmental stability. As a result, the fluorescence of Q3NI in pH 7.4, 0.1 M PBS is effectively quenched in comparison to that of the free NI reporter, as noted by their spectra in FIGS. 3B and 3C and respective fluorescence quantum yields Φ of 0.007 and 0.23 obtained using quinine sulfate as standard. […] The 33-fold fluorescence enhancement for NI versus Q3NI and very large Stokes shift of 116 nm (λmax abs=374 run, λmax em=490 nm) bode well for use of Q3NI as a multifunctional turn-on probe for sensing and imaging applications that utilize reductive stimuli capable of initiating removal of the reduced quinone group.

HT-29 cells = experiment: Wide-field fluorescence imaging of fixed cells; assay type: cell-based, human; details: 10 min exposure
From the text: (§2) There was no indication of reporter in the nucleus, pointing to the lack of NQOI there; this is in contrast to previous work using immunohistochemical staining of penneabilized, fixed cells. The average cytosolic signal was 9 times higher in A549 cells versus NQOI-negative H596 cells, while it was 23 times higher in HT-29 cells compared to the NQOI-negative H596 cells. […] Accumulation of the basic (secondary amine pKa ˜11) NI occurred in acidic late endosomal and lysosomal vesicles, a beneficial outcome that leads to enhanced intracellular retention of NI. […] Collectively, there is great potential for use of our probe/reporter system for ex vivo quantitative analysis of excised tumor cells and long-term in vivo and in vitro imaging.

H596 cells = experiment: Wide-field fluorescence imaging of fixed cells; assay type: cell-based, human; details: 10 min exposure
From the text: as §2

A549 cells [3] = experiment: Wide-field fluorescence imaging of fixed cells; assay type: cell-based, human; details: 10 min exposure
From the text: as §2

H596 [4] = experiment: Unaided-eye visualization of cultured cells with handheld 365 nm lamp; assay type: cell-based, human; details: 2×10^−5 M Q3NI, 10 min incubation; 3.96×10^6 total cells
Description: (§3) Embodiments of the present invention may allow for cancer cells to be rapidly visualized and differentiated. […] After a 10 min incubation period in a cell culture solution containing 2×10^−5 M Q3NI, it was possible to differentiate between the various substrate-cultured cells (4.84 cm^2) using only a handheld fluorescent lamp emitting at 365 nm and the unaided eye. […] The ability to visually determine the presence of hNQO1 in a small number of cells is due to the marked difference in fluorescence from the unquenched NI reporter (Φ=0.23) and quenched Q3NI probe (Φ=0.007) and the large Stokes shift of the NI reporter that results in fluorescence emission in the visible spectrum (400 nm to ˜600 nm). These outcomes point to use of the Q3NI probe sensor in the real-time, visible (without the aid of imaging equipment), and accurate determination of tumor/healthy tissue borders so as to allow for surgical resection of tumors with small foci.

HT-29 [5] = experiment: as above; assay type: cell-based, human; details: 2×10^−5 M Q3NI, 10 min incubation; 3.69×10^6 total cells
Description: as §3

A549 [6] = experiment: as above; assay type: cell-based, human; details: 2×10^−5 M Q3NI, 10 min incubation; 5.72×10^6 total cells
Description: as §3

[7] = Voltammetric redox potentials and Rehm-Weller calculation of PeT energy; assay type: physicochemical
From the text: Embodiments of the present invention provide a probe (Q3NI) having fluorescence signal of a naphthalimide reporter quenched via oxidative electron transfer (OeT) by a covalently attached quinone propionic acid motif. See, e.g. FIG. 3A. The Q3NI provides the novel mechanism of reporter quenching by carefully tuning the electronic and optical properties of the quinone (Q3) OeT quencher and the naphthalimide reporter (NI), due to extant naphthalimide reporters that are quenched by reductive electron-transfer (ReT). The Rehm-Weller equation,
as §1

H446 [8] = experiment: 2-photon microscopy of living cells; assay type: cell-based, human; details: 2.0×10^−5 M Q3NI in complete growth medium
From the text: (§4) Multiphoton (MP) microscopy imaging of cells and tissues may be more advantageous than traditional fluorescence microscopy, because use of the characteristic long-wavelength photons offers higher fluorophore and cellular photostability that provides extended imaging duration, less background signal from out-of-focus excitation and scattering events, and deeper penetration depth. In addition, MP imaging is ideal for direct observation of targets in their physiological environment and ex vivo thick-specimen sampling where 2D and 3D maps can be generated. […] As before, the signal appears somewhat heterogeneous throughout the cytosolic space of the HT-29 and A549 cells due to NI accumulation in acidic organelles. To ensure Q3NI and NI had little effect on cell health, cells were incubated in a 2.0×10^−5 M Q3NI solution in complete growth medium for 1 h and 1 day, and then cell viability was assessed with a trypan blue assay. After 1 h, cell viability for HT-29, A549, and H596 was 97.7%, 98.8%, and 100%, while it was 97.7%, 98.7%, and 98.4% after 24 h.

H596 [9] = experiment: 2-photon microscopy of living cells; assay type: cell-based, human; details: 2.0×10^−5 M Q3NI in complete growth medium
From the text: as §4

A549 cells [10] = experiment: 2-photon microscopy of living cells; assay type: cell-based, human; details: 2.0×10^−5 M Q3NI in complete growth medium
From the text: as §4

HT-29 cell line = experiment: 2-photon microscopy of living cells; assay type: cell-based, human; details: 2.0×10^−5 M Q3NI in complete growth medium
From the text: as §4

H596 [11] = experiment: Trypan blue cell viability assay; assay type: cell-based, human; details: 2.0×10^−5 M Q3NI
From the text: as §4

HT-29 [12] = experiment: Trypan blue cell viability assay; assay type: cell-based, human; details: 2.0×10^−5 M Q3NI
From the text: as §4

A549 [13] = experiment: Trypan blue cell viability assay; assay type: cell-based, human; details: 2.0×10^−5 M Q3NI
From the text: as §4

H446 [14] = experiment: Flow cytometry assay of Q3NI activation; assay type: cell-based, human; details: 10 min or 60 min incubation; λex=405 nm, λem=457/60 nm; 10,000 cells
Description: (§5) Flow cytometry assays were used to assess the applicability of the Q3NI probe to rapidly detect and quantify tumor cells containing hNQO1. See, FIG. 8. The probe was incubated in a suspension of HT-29, A549, H596, and H446 (a small-cell lung carcinoma known to be devoid of hNQO1 activity) cells for either 10 min or 60 min, and a flow cytometer was used to measure fluorescence (λex=405 nm, λem=457/60 nm) in 10,000 individual cells. […] Importantly, the sustained low fluorescence observed with the H446 cells (FIG. 8) points to the intracellular stability of Q3NI (lack of nonspecific activation).

H596 [15] = experiment: Flow cytometry assay of Q3NI activation; assay type: cell-based, human; details: 10 min or 60 min incubation; λex=405 nm, λem=457/60 nm; 10,000 cells
Description: as §5

HT-29 [16] = experiment: Flow cytometry assay of Q3NI activation; assay type: cell-based, human; details: 10 min or 60 min incubation; λex=405 nm, λem=457/60 nm; 10,000 cells
Description: as §5

A549 [17] = experiment: Flow cytometry assay of Q3NI activation; assay type: cell-based, human; details: 10 min or 60 min incubation; λex=405 nm, λem=457/60 nm; 10,000 cells
Description: as §5

fixed samples = experiment: Reporter retention in paraformaldehyde-fixed cell samples; assay type: cell-based; details: paraformaldehyde fixing; fixed samples stored for 10 months in the laboratory ambient
From the text: as §2

[18] = pKa of secondary amine of reporter; assay type: physicochemical
[19] = other dyes applied to cancer detection and localization; cited from earlier work

Chain of human NAD(P)Rquinone oxidoreductase isozyme 1 (hNQO1) (P15559 whole entry): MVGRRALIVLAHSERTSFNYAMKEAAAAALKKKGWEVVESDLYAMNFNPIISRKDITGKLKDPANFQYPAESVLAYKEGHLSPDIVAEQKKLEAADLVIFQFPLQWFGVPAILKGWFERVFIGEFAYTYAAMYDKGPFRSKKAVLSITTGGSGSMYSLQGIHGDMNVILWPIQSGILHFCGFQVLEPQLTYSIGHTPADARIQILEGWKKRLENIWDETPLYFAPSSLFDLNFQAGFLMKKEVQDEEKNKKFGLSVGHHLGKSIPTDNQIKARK

fluorescent signal as % of the maximum achievable ([1]; after 5 min, in vitro): 22% | released reporter ([1]; after 5 min, in vitro): 220 nM | catalytic constant (kcat) ([1]; apparent, FIG. 7): 0.019 ± 0.001 s⁻¹ | maximum velocity (Vmax) ([1]; apparent, FIG. 7): 0.037±0.002 μmol min^−1 mg·NQO^−1 | Km ([1]; apparent, from time-dependent NI reporter production, FIG. 7, read-out: Michaelis constant (Km)): 3.86 ± 0.79 µM | fluorescence quantum yield Φ ([2]; pH 7.4, 0.1 M PBS): 0.007 | ΔGPeT, energy change for the OeT process ([7]; Rehm-Weller equation): −0.37 eV | EA, redox potential of the acceptor (quinone propionic acid group) ([7]; voltammetric measurements): −1.01 V
Compound: CCCCN1C(=O)c2cccc3c(NC(=O)OCCN(C)C(=O)CC(C)(C)C4=C(C)C(=O)C(C)=C(C)C4=O)ccc(c23)C1=O [Q3NI]
average cytosolic signal versus NQO1-negative H596 cells (HT-29 cells): 23 times | intracellular NI fluorescence signal (H596 cells): minimal signal | average cytosolic signal versus NQO1-negative H596 cells (A549 cells [3]): 9 times | appearance under 365 nm handheld lamp, unaided eye (H596 [4]): no apparent emission | appearance under 365 nm handheld lamp, unaided eye (HT-29 [5]): fluorescent blue | appearance under 365 nm handheld lamp, unaided eye (A549 [6]): fluorescent blue | fluorescence signal from NI (H446 [8]): minimal signal | fluorescence signal from NI (H596 [9]): minimal signal | average fluorescence signal compared to H596 cells (A549 cells [10]): 13 fold | average fluorescence signal versus H446 cells (A549 cells [10]): 3.66×10^4 fold | cytosolic intensity compared to H446 cells (HT-29 cell line): 4.51×10^4 fold | cytosolic intensity compared to H596 cells (HT-29 cell line): 15 fold | cell viability (H596 [11]; after 1 h): 100% | cell viability (H596 [11]; after 24 h): 98.4% | cell viability (HT-29 [12]; after 1 h): 97.7% | cell viability (HT-29 [12]; after 24 h): 97.7% | cell viability (A549 [13]; after 1 h): 98.8% | cell viability (A549 [13]; after 24 h): 98.7% | flow cytometry fluorescence histogram (H446 [14]): minimal fluorescence | flow cytometry fluorescence histogram (H596 [15]): minimal fluorescence | flow cytometry fluorescence histogram (HT-29 [16]): high-intensity, unimodal distribution of signals | flow cytometry fluorescence histogram (A549 [17]): high-intensity, unimodal distribution of signals

fluorescence enhancement for NI versus Q3NI ([2]; pH 7.4, 0.1 M PBS): 33 fold | fluorescence quantum yield Φ ([2]; pH 7.4, 0.1 M PBS): 0.23 | Stokes shift ([2]; λmax abs=374, λmax em=490 nm): 116 nm | energy of the first excited singlet state [7]: 3.06 eV | ED, redox potential of the donor ([7]; voltammetric measurements): 1.74 V | efflux of reporter from cells / fluorescence retention (fixed samples): no apparent efflux | secondary amine pKa [18]: ~11
Compound: CCCCN1C(=O)c2cccc3c(NC(=O)OCCNC)ccc(c23)C1=O [NI]

Compound: CC1(C)C(/C=C/C=C/C=C/C=C2\N(CCCCS(=O)(=O)O)c3ccc4ccccc4c3C2(C)C)=[N+](CCCCS(=O)(=O)[O-])c2ccc3ccccc3c21 [indocyanine green]
fluorescence quantum yield Φ [19]: 0.0028
